Assay results as given in patent US5043450A, “8-alkoxyquinolonecarboxylic acid and salts thereof” (priority 1986, dated 1991).
≈ marks a conversion by molar mass, not a printed value.

Experiments:
Format in all cases: cell-based
[1] = test system: Enterobacter cloacae IID 977; assay: Antibacterial spectra, MIC; settings: IID977
[2] = test system: B. thetaiotaomicron (0661); assay: Antibacterial spectra, MIC; settings: Bacteroides thetaiotaomicron
[3] = test system: Peptostreptococcus anaerobius KYA 27337; assay: Antibacterial spectra, MIC; settings: KYA27337
P. mirabilis IID 994 = assay: Antibacterial spectra, MIC; settings: Proteus mirabilis, IID994
[4] = test system: Yersinia enterocolitica IID 981; assay: Antibacterial spectra, MIC; settings: IID981
[5] = test system: Citrobacter freundii IID 976; assay: Antibacterial spectra, MIC; settings: IID976
Bacilus subtilis PCI 219 = assay: Antibacterial spectra, MIC; settings: Bacillus subtilis, PCI219
[6] = test system: Pseudomonas aeruginosa V-1; assay: Antibacterial spectra, MIC; settings: V1
E. coli ML 4707 = assay: Antibacterial spectra, MIC; settings: Escherichia coli, ML4707; 10^6 cells/ml; Gram -
Description: (§1) The antibacterial test was carried out according to the method designated by Japan Society of Chemotherapy.

E. faecalis IID 682 = assay: Antibacterial spectra, MIC; settings: Enterococcus faecalis, IID682; 10^6 cells/ml; Gram +
Description: as §1

[7] = test system: Proteus vulgaris IFO 3167; assay: Antibacterial spectra, MIC; settings: IFO3167, 10^6 cells/ml, Gram -
Description: as §1

Shigella sonnei IID 969 = assay: Antibacterial spectra, MIC; settings: IID969, 10^6 cells/ml, Gram -
Description: as §1

[8] = test system: Streptococcus pyogenes (S-8); assay: Antibacterial spectra, MIC; settings: 10^6 cells/ml, Gram +
Description: as §1

[9] = test system: Morganella morganii IID 602; assay: Antibacterial spectra, MIC; settings: IID602
F. varium KYA 8501 = assay: Antibacterial spectra, MIC; settings: Fusobacterium varium, KYA8501; 10^6 cells/ml; Gram -; read-out: MIC
B. fragilis 0558 = assay: Antibacterial spectra, MIC; settings: Bacteroides fragilis
[10] = test system: Acinetobacter anitratus IID 876; assay: Antibacterial spectra, MIC; settings: Acinetobacter calcoaceticus, IID876
[11] = test system: S. aureus IID 670 (Terajima); assay: Antibacterial spectra, MIC; settings: Staphylococcus aureus, IID670
[12] = test system: Clostridium difficile I-E; assay: Antibacterial spectra, MIC; settings: Clostridioides difficile
[13] = test system: Veillonella parvula KYA 10790; assay: Antibacterial spectra, MIC; settings: KYA10790
[14] = test system: Alcaligenes faecalis 0114002; assay: Antibacterial spectra, MIC
[15] = test system: Klebsiella pneumoniae KY(GN)6445; assay: Antibacterial spectra, MIC
F. necrophorum S-45 = assay: Antibacterial spectra, MIC; settings: Fusobacterium necrophorum, S45
B. fragilis 25285 = assay: Antibacterial spectra, MIC; settings: Bacteroides fragilis
[16] = test system: Propionibacterium acens 11828; assay: Antibacterial spectra, MIC; settings: 10^6 cells/ml, Gram +, read-out: MIC
S. pneumoniae IID 552 = assay: Antibacterial spectra, MIC; settings: Streptococcus pneumoniae, IID552
[17] = test system: Escherichia coli NIHJ JC-2; assay: Antibacterial spectra, MIC; settings: NIHJJC2
B. distasonis 8503 = assay: Antibacterial spectra, MIC; settings: Parabacteroides distasonis
S. pyogenes IID 692 = assay: Antibacterial spectra, MIC; settings: Streptococcus pyogenes, IID692
P. aeruginosa IID 1210 = assay: Antibacterial spectra, MIC; settings: Pseudomonas aeruginosa, IID1210
[18] = test system: Peptococcus magnus KY 017; assay: Antibacterial spectra, MIC; settings: Finegoldia magna, KY017
K. pneumoniae 1-220S = assay: Antibacterial spectra, MIC; settings: Klebsiella pneumoniae, 1220S
P. maltophilia GIFU 2491 = assay: Antibacterial spectra, MIC; settings: Stenotrophomonas maltophilia, GIFU2491
Pst. micros UPI 5464-1 = assay: Antibacterial spectra, MIC; settings: Parvimonas micra, UPI54641
[19] = test system: Fusobacterium mortiferum 4249; assay: Antibacterial spectra, MIC
C. perfringens KYA 13123 = assay: microbe, parasite or virus in culture; settings: Clostridium perfringens, KYA13123
[20] = test system: Salmonella enteritidis IID 604; assay: Antibacterial spectra, MIC; settings: Salmonella enterica
C. ramosum = assay: Antibacterial spectra, MIC; settings: Thomasclavelia ramosa
[21] = test system: Staphylococcus aureus 209 P; assay: Antibacterial spectra, MIC
[22] = test system: Bacteroides fragilis GM 7000; assay: Antibacterial spectra, MIC; settings: GM7000
E. coli ATCC 10536 = assay: Antibacterial spectra, MIC; settings: Escherichia coli, ATCC10536
[23] = test system: Eubacterium lentum GAI 5242; assay: Antibacterial spectra, MIC; settings: Eggerthella lenta, GAI5242
[24] = test system: Serratia marcescens IID 618; assay: Antibacterial spectra, MIC; settings: IID618
P. aeruginosa IFO 12689 = assay: Antibacterial spectra, MIC; settings: Pseudomonas aeruginosa, IFO12689
P. cepacia GIFU 518 = assay: Antibacterial spectra, MIC; settings: Burkholderia cepacia, GIFU518
S. aureus Smith = assay: Antibacterial spectra, MIC; settings: Staphylococcus aureus
B. vulgatus KYA 29327 = assay: Antibacterial spectra, MIC; settings: Phocaeicola vulgatus, KYA29327
S. epidermidis IID 866 = assay: Antibacterial spectra, MIC; settings: Staphylococcus epidermidis, IID866

SMILES: COc1c(N2CCC(N)C2)c(F)cc2c(=O)c(C(=O)O)cn(C3CC3)c12 (stereo not drawn) [Exp. 4, 7-(3-amino-1-pyrrolidinyl)-1-cyclopropyl-6-fluoro-1,4-dihydro-8-methoxy-4-oxo-3-quinolinecarboxylic acid]
- MIC [1]: 0.05 µg/mL (≈ 0.138 µM)
- MIC [2]: 0.2 µg/mL (≈ 0.553 µM)
- MIC [3]: 0.2 µg/mL (≈ 0.553 µM)
- MIC (P. mirabilis IID 994): 0.05 µg/mL (≈ 0.138 µM)
- MIC [4]: 0.05 µg/mL (≈ 0.138 µM)
- MIC [5]: 0.05 µg/mL (≈ 0.138 µM)
- MIC (Bacilus subtilis PCI 219): 0.025 µg/mL (≈ 0.0692 µM)
- MIC [6]: 0.39 µg/mL (≈ 1.08 µM)
- MIC (E. coli ML 4707): 0.025 µg/mL (≈ 0.0692 µM)
- MIC (E. faecalis IID 682): 0.1 µg/mL
- MIC [7]: 0.025 µg/mL (≈ 0.0692 µM)
- MIC (Shigella sonnei IID 969): 0.025 µg/mL (≈ 0.0692 µM)
- MIC [8]: 0.05 µg/mL
- MIC [9]: 0.05 µg/mL (≈ 0.138 µM)
- MIC (F. varium KYA 8501): 1.56 µg/mL (≈ 4.32 µM)
- MIC (B. fragilis 0558): 0.1 µg/mL (≈ 0.277 µM)
- MIC [10]: 0.05 µg/mL (≈ 0.138 µM)
- MIC [11]: 0.05 µg/mL (≈ 0.138 µM)
- MIC [12]: 0.39 µg/mL (≈ 1.08 µM)
- MIC [13]: 0.2 µg/mL (≈ 0.553 µM)
- MIC [14]: 0.39 µg/mL (≈ 1.08 µM)
- MIC [15]: 0.05 µg/mL (≈ 0.138 µM)
- MIC (F. necrophorum S-45): 0.2 µg/mL (≈ 0.553 µM)
- MIC (B. fragilis 25285): 0.1 µg/mL (≈ 0.277 µM)
- MIC [16]: 1.56 µg/mL (≈ 4.32 µM)
- MIC (S. pneumoniae IID 552): 0.1 µg/mL (≈ 0.277 µM)
- MIC [17]: 0.0125 µg/mL (≈ 0.0346 µM)
- MIC (B. distasonis 8503): 0.78 µg/mL (≈ 2.16 µM)
- MIC (S. pyogenes IID 692): 0.1 µg/mL (≈ 0.277 µM)
- MIC (P. aeruginosa IID 1210): 0.39 µg/mL (≈ 1.08 µM)
- MIC [18]: 0.1 µg/mL (≈ 0.277 µM)
- MIC (K. pneumoniae 1-220S): 0.05 µg/mL (≈ 0.138 µM)
- MIC (P. maltophilia GIFU 2491): 0.1 µg/mL (≈ 0.277 µM)
- MIC (Pst. micros UPI 5464-1): 0.2 µg/mL (≈ 0.553 µM)
- MIC [19]: 0.2 µg/mL (≈ 0.553 µM)
- MIC (C. perfringens KYA 13123): 0.2 µg/mL (≈ 0.553 µM)
- MIC [20]: 0.05 µg/mL (≈ 0.138 µM)
- MIC (C. ramosum): 0.78 µg/mL (≈ 2.16 µM)
- MIC [21]: 0.05 µg/mL (≈ 0.138 µM)
- MIC [22]: 0.2 µg/mL (≈ 0.553 µM)
- MIC (E. coli ATCC 10536): 0.025 µg/mL (≈ 0.0692 µM)
- MIC [23]: 0.1 µg/mL (≈ 0.277 µM)
- MIC [24]: 0.05 µg/mL (≈ 0.138 µM)
- MIC (P. aeruginosa IFO 12689): 0.39 µg/mL (≈ 1.08 µM)
- MIC (P. cepacia GIFU 518): 0.39 µg/mL (≈ 1.08 µM)
- MIC (S. aureus Smith): 0.05 µg/mL (≈ 0.138 µM)
- MIC (B. vulgatus KYA 29327): 0.39 µg/mL (≈ 1.08 µM)
- MIC (S. epidermidis IID 866): 0.1 µg/mL (≈ 0.277 µM)
